Laboratory results as given in PMC12163684, “Gunacins: Novel Benzo[g]chromene Derivatives from the Fungus Exobasidium sp. and Their Potent Anti-Leishmania and Trypanosoma Activities” (ACS Omega, 2025).
Read-outs that look alike come from different tables or passages of the source.

Experiments:
[1] = test system: T. b. brucei 427; test: Anti-trypanosomal activity, resazurin (AB assay), bloodstream form; type: cell-based; details: Trypanosoma brucei, 72 h, axenic, 48 h + 24 h resazurin
Method: The bloodstream forms of T. b. gambiense LiTat 1.3, T. b. brucei 427, and T. b. evansi AnTat 3/3 were grown in HMI-11 medium pH 7.3 supplemented with 36 mM sodium bicarbonate, 100 U/mL penicillin/streptomycin, and 10% fetal bovine serum at 37 °C and 5% CO2. The bloodstream form of Trypanosoma congolense IL3000 (generous gift from Liam Morrison) was cultured in TcBSF-1 medium pH 7.3 supplemented with 26 mM sodium bicarbonate, 25 mM HEPES, 5.5 mM glucose, 1 mM sodium pyruvate, 0.04 mM adenosine, 0.1 mM hypoxanthine, 0.02 mM thymidine, 0.02 mM bathocuproine, 2 mM L-glutamine, 0.2 mM 2-mercaptoethanol, 100 U/ml penicillin/streptomycin, and 20% goat serum New Zealand origin (Gibco) at 34 °C, 5% CO2. The assay for anti-trypanosomal activity was performed using the resazurin sodium salt dye (AB Assay) according to the published protocol in a 96-well plate format. Parasites at a number of 5 × 10^3 per well (T. b. brucei and T. b. gambiense) or 1 × 10^4 per well (T. b. evansi) were incubated with different drug concentrations (2-fold serial dilutions) in a volume of 200 μL of the medium. Medium with 1% DMSO (the highest concentration of the solvent used in the assay) was used to confirm no effect of the solvent on the cell growth. The plates were incubated for 48 h at the appropriate temperature. Then, 20 μL of resazurin sodium salt solution (0.125 mg/mL in 1× PBS, pH 7. 4) was added to each well, and the cells were incubated for another 24 h under the same conditions. The fluorescence signal was quantified using a Tecan Infinite M200 plate reader at excitation and emission wavelengths of 560 and 590 nm, respectively. The EC50 values were calculated using GraphPad Prism 9.5.1 by nonlinear regression with a variable slope. Each EC50 value is the mean ± standard error of the mean of three separate experiments performed in duplicate.

[2] = test system: RTL-W1 cell line; test: Cell viability assay with fluorescent indicators AB, CFDA-AM and NR; type: cell-based, rainbow trout (Oncorhynchus mykiss); details: Oncorhynchus mykiss, 24 h exposure, n.d. = activity not detected at highest tested concentration 150 μM
Method: Cell viability assay was determined on cell line RTL-W1 (obtained from Eawag, Switzerland; liver tissue) of rainbow trout (Oncorhynchus mykiss) according to the modified procedure of Dayeh (2005). A combination of three fluorescent indicators, alamarBlue (AB), 5-carboxyfluorescein diacetate acetoxymethyl ester (CFDA-AM), and NR was used to assess different mechanisms of toxic action, evaluate the general cellular response and increase the sensitivity of the cytotoxicity tests. […] After 24 h of incubation in microculturing plates, the cells were exposed to concentration series of isolated compounds in 0.5% DMSO for another 24 h. After the exposition, the solutions were removed from individual wells followed by the washing step and the addition of 100 μL of a dye solution containing 0.625% AB and 0.4 μM CFDA-AM in […]. The cells were incubated at room temperature for 30 min, and the fluorescence was measured at excitation/emission wavelengths of 535/590 nm for the AB assay and 485/535 nm for the CFDA-AM assay. Afterward, the dye solution was removed, the cells were rinsed, and 100 μL of the NR solution was added (0.03 mg/mL in […]). After 60 min of incubation, the cells were rinsed twice, and NR was extracted from the cells using 150 μL of a solution consisting of 1% (v/v) glacial acetic acid in 50% (v/v) ethanol. The content of each well was repeatedly homogenized using a pipet, and the fluorescence was measured at excitation/emission wavelengths of 535/630 nm.

[3] = Alamar Blue, cellular metabolic activity, read-out: EC50 ± SEM RTL-W1 (AB)
[4] = CFDA-AM, cell membrane integrity, read-out: EC50 ± SEM RTL-W1 (CFDA)
[5] = Neutral Red, lysosomal membrane integrity, read-out: EC50 ± SEM RTL-W1 (NR)

Structure (SMILES)	EC50 [1] [nM]	EC50 [2, 3] [nM]	EC50 [2, 4] [nM]	EC50 [2, 5] [nM]
COc1cc(O)c2c(c1)C(=O)C1=C(C2=O)[C@H](O)[C@@H](O)[C@@H](C)O1 (relative stereo) [Compound 3, (2R,3R,4S)-3,4,6-trihydroxy-8-methoxy-2-methyl-3,4-dihydro-2H-benzo[g]chromene-5,10-dione]	4300			
COc1cc(O)c2c(c1)C(=O)C1=C(C2=O)[C@@H](OC(C)=O)[C@@H](O)[C@@H](C)O1 [Compound 1, (2R,3S,4R)-3,6-dihydroxy-8-methoxy-2-methyl-5,10-dioxo-3,4,5,10-tetrahydro-2H-benzo[g]chromen-4-yl acetate]	60	500	800 ± 100	300
COc1cc(O)c2c(c1)C(=O)C1=C(C2=O)[C@@H](O)[C@@H](OC(C)=O)[C@@H](C)O1 [Compound 5, (2R,3R,4R)-4,6-dihydroxy-8-methoxy-2-methyl-5,10-dioxo-3,4,5,10-tetrahydro-2H-benzo[g]chromen-3-yl acetate]	60	2500 ± 300	2100 ± 100	900 ± 100
COc1cc(O)c2c(c1)C(=O)C1=C(C[C@@H](OC(C)=O)[C@@H](C)O1)C2=O [Compound 7, (2R,3R)-6-hydroxy-8-methoxy-2-methyl-5,10-dioxo-3,4,5,10-tetrahydro-2H-benzo[g]chromen-3-yl acetate]	900			
